Reference: US20100190717A1, “USE OF MELANIN CONCENTRATING HORMONE AND MET-ENKEPHALIN AS THERAPEUTIC AGENTS” (priority 2007, published 2010)
Ends that are not written are not given here.

Key:
HCMV strain AD169 = test: HCMV plaque formation assay in MRC-5 cells; conditions: for inhibition of HCMV plaque formation compared to the virus control: 10 micrograms per ml, 7-10 days
[1] = test system: LPS-induced TNF-alpha production in human macrophages; test: TNF alpha production assay (LPS-stimulated macrophages, ELISA); format: cell-based; conditions: 10 micrograms per ml; LPS 200 ng/ml, overnight
Excerpt: Not stimulated macrophages served as negative background control.

[2] = test system: Interferon-γ (IFN-γ) in spleen cells; test: Th1/Th2 cytokine profiling assay: IFN-γ; format: cell-based, Balb/c mice; conditions: 10 micrograms per ml; Ovalbumin-restimulated spleen cells, 72 hours
[3] = test system: Primary Human endothelial cells (HUVEC); test: Endothelial cell migration assay; format: cell-based; conditions: 10 micrograms per ml, 22 hours
Method: Thereafter, designated concentration of testing peptides—10 micrograms per ml—was added in duplicate wells.

[4] = test system: hepatitis B virus (HBV) ayw strain; test: HBV assay in HepG2-2.2.15 cells (TaqMan PCR of secreted HBV DNA); format: cell-based; conditions: 10 micrograms per ml; HepG2-2.2.15, six days
[5] = test system: Human Peripheral Blood Mononuclear Cells (PBMC), B cell proliferation; test: B cell proliferation assay (SAC plus Interleukin-2 stimulated PBMC, 3H-thymidine); format: cell-based; conditions: 10 micrograms per ml
Method: Human Peripheral Blood Mononuclear Cells (PBMC) were obtained from normal human donors. The B cell proliferation was induced by stimulation of the cells with the B cell mitogen Staphylococcus aureus Cowans I (SAC) plus Interleukin-2, either in the absence (positive proliferation control), or in the presence of test peptides—10 micrograms per ml—to examine their effects on the B cell response. 10^5/well PBMC were plated in 96-well microtiter plates and assayed in duplicate with the peptides. […] At the end of incubation time, the plates were harvested and the cells counted by liquid scintillation for the incorporation of ^3H-thymidine as a measure of B cell proliferation.

[6] = test system: Tumor Necrosis Factor-α (TNF-α) in spleen cells; test: Th1/Th2 cytokine profiling assay: TNF-α; format: cell-based, Balb/c mice; conditions: 10 micrograms per ml; Ovalbumin-restimulated spleen cells, 72 hours
[7] = test system: Interleukin-4 (IL-4) in spleen cells; test: Th1/Th2 cytokine profiling assay: IL-4; format: cell-based, Balb/c mice; conditions: 10 micrograms per ml; Ovalbumin-restimulated spleen cells, 72 hours
Human A549 cells = test: Apoptosis prevention assay (C2 ceramide, Annexin-5); format: cell-based; conditions: 10 micrograms per ml, A549, 30 min pretreatment
Method: Human A549 cells (carcinomic human alveolar basal epithelial cells) were utilized in the experiments employing the Annexin-5 apoptosis assay. […] A549 cells were pretreated for 30 min with test peptides—10 micrograms per ml—followed by the exposure to C2 ceramide.

[8] = test system: Interleukin-2 (IL-2) in spleen cells; test: Th1/Th2 cytokine profiling assay: IL-2; format: cell-based, Balb/c mice; conditions: 10 micrograms per ml; Ovalbumin-restimulated spleen cells, 72 hours
HUVEC = test: Endothelial tube formation assay; format: cell-based, human; conditions: 10 micrograms per ml, 20 hours
Excerpt: Positive control was vehicle only.

[9] = test system: Interleukin-5 (IL-5) in spleen cells; test: Th1/Th2 cytokine profiling assay: IL-5; format: cell-based, Balb/c mice; conditions: 10 micrograms per ml; Ovalbumin-restimulated spleen cells, 72 hours
Excerpt: The Balb/c mice (originated in 1923, it is a popular strain and is used in many different research disciplines. Also classified as an inbred from the production of 20 or more successive brother-sister matings, the Balb/c mouse is albino and small in size) were immunized on Days 1, 15, and 29 with Ovalbumin (Ovalbumin is the main protein found in egg white, commonly used to stimulate an immunological reaction in test animals) in PBS (5 micrograms/injection). On day 50, spleens of the mice were harvested (3 weeks after last boost with Ovalbumin). Cells were cultured (2×10^5/well in triplicate) and incubated with culture medium or test peptides—10 micrograms per ml—for 30 min. Thereafter, additional Ovalbumin was added to the cells at 10 micrograms/ml for in vitro restimulation of the cells. 72 hours later, cell supernatants were harvested and assayed using the Becton Dickinson Mouse Th1/Th2 Cytokine CBA Kit. This kit can be used to measure Interleukin-2 (IL-2), Interleukin-4 (IL-4), Interleukin-5 (IL-5), Interferon-γ (IFN-γ), and Tumor Necrosis Factor-α (TNF-α) protein levels in a single sample. The kit performance has been optimized for analysis of physiologically relevant concentrations (μg/ml levels) of specific cytokine proteins in tissue culture supernatants and serum samples.

Row | Molecule | antiviral activity of positive control compound (HCMV) (HCMV strain AD169; positive control) | inhibition of the LPS-induced TNF-alpha production in human macrophages [1] | IFNγ spleen cells; TH1 response (% of control) [2] | inhibition of the migration of human endothelial cells [3] | inhibition of HBV replication on tested liver cells [4] | decrease of the proliferation of specifically stimulated human B-cells [5] | TNF-a spleen cells; TH1 response (% of control) [6] | IL-4 spleen cells; TH2 response (% of control) [7] | prevention (reduction) of the ceramide-induced apoptosis on human lung cells (Human A549 cells) | inhibition of HCMV plaque formation compared to the virus control (HCMV strain AD169) | IL-2 spleen cells (% of control) [8] | inhibition of the tube formation of endothelial cells (HUVEC) | IL-5 spleen cells; TH2 response (% of control) [9]
1 | Nc1nc(O)c2ncn(COC(CO)CO)c2n1 [Ganciclovir, reference compound] | expected levels of antiviral activity | – | – | – | – | – | – | – | – | – | – | – | –
2 | Asp-Phe-Asp-Met-Leu-Arg-Cys-Met-Leu-Gly-Arg-Val-Tyr-Arg-Pro-Cys-Trp-Gln-Val-OH (DFDMLRCMLGRVYRPCWQV-OH; ends and bridges not checked) [peptide 1, melanin concentrating hormone (MCH), commercially available peptide] | – | 20.6% | 90.4 % of control | 39% | no effect | 20.9% | 92.1 % of control | 85.9 % of control | did not show any reducing or increasing effect | did not inhibit | 42.3 % of control | 19% | 78.8 % of control
3 | Tyr-Gly-Gly-Phe-Met-OH [peptide 2] | – | 28.4% | 64.9 % of control | – | no effect | 12.0% | 89.3 % of control | 100.4 % of control | 17.4% | did not inhibit | 86.3 % of control | 25% | 67.5 % of control
